Consider four compounds from patent publication US20260364038A1, “VASODILATOR, NITRIC OXIDE SYNTHASE PRODUCTION PROMOTER, AND USE OF SAME” (J-OIL MILLS, INC., priority 2022, published 2026).

Like-named read-outs stand apart in the source and are kept apart here.

For experiment [1], the system named is endothelial nitric oxide synthase (eNOS) genetic expression in HUVECs. The experiment can be described thus: Relative eNOS genetic expression amount in HUVECs (OneStep real-time RT-PCR, Taqman probe, ddCt method). The class given is cell-based. The conditions noted are these: 24 hours; for Relative eNOS genetic expression amount, Significant difference: vs control example 1, Dunnett's test; for fold induction at 1 µM / fold induction at 30 µM: Homo sapiens, HUVEC; for action for promoting production of endothelial nitric oxide synthase (conclusion in words): 30 μM. How it is done: HUVECs (made by Lonza; catalog no.: C2519AS)
EGM-2 (made by Lonza; catalog no.: CC-3162)
The substances under test in (1) to (3) below were each dissolved in dimethyl sulfoxide (DMSO) (made by Nacalai Tesque) to prepare solutions having a concentration of 30 mM, and the solutions were added to the culture medium at a 1/1000 proportion to prepare culture media in which the target final concentration of the respective substances under test was 30 μM (Examples 1 to 3).
• (1) Tetradecanoic acid (C14:0) (purity: 100%; made by Sigma-Aldrich) • (2) Pentadecanoic acid (C15:0) (purity: 98.8%; made by Sigma-Aldrich) • (3) Tridecanoic acid (C13:0) (purity: 99.2%; made by Sigma-Aldrich) • (4) Fluvastatin (made by Tokyo Chemical Industry Co., Ltd.; model no.: F0820)
The HUVECs were thawed in a T75 flask and cultured in a CO2 incubator (“SCA-165DRS” made by Astec Co., Ltd.; conditions: 37 °C, 5% CO2, humid; same below) using the EGM-2. The cells were isolated using a 0.05% concentration trypsin solution (“Trypsin-EDTA (0.05%), phenol red” made by Thermo Fisher Scientific; catalog no.: 25300054), sown in a 96-well plate using the culture medium, and cultured in the CO2 incubator. The next day, the culture medium was replaced with the culture media prepared in section “(3. Preparation of substances under test)” above, and the cells were then cultured for 24 hours in the CO2 incubator to carry out treatment using the substances under test.
[5. RNA Extraction, qPCR]
After the treatment, a culture medium supernatant was recovered, RNA was extracted from the cells using a FastLane Cell Probe kit (made by QIAGEN; catalog no.: 215011), OneStep real-time RT-PCR was carried out using a Taqman probe, and the relative eNOS genetic expression amount was calculated by means of the ddCt method. The relative eNOS genetic expression amount was derived by dividing the eNOS genetic expression amount by the GAPDH genetic expression amount.
A significant difference between the substance-under-test treatment groups (control example 2 and the examples) and control example 1 was certified by means of Dunnett's test.
(In general: In qPCR the cycle at which signal appears reflects the starting amount.)

Experiment [2] has as its system endothelial nitric oxide synthase. As to conditions: positive control; stated as known; cited from earlier work.
The mark [3] stands for this setting: 30 μM final concentration, average of n1-n5, control example 1 (none added) = 1.00, read-out: Relative eNOS genetic expression amount, Average value of n1-n5.
Where [4] appears, read: 30 μM final concentration, replicate n1, eNOS/GAPDH, relative to control example 1, read-out: Relative eNOS genetic expression amount, n1.
Where [5] appears, read: 30 μM final concentration, replicate n2, eNOS/GAPDH, relative to control example 1, read-out: Relative eNOS genetic expression amount, n2.
The mark [6] stands for this setting: 30 μM final concentration, replicate n3, eNOS/GAPDH, relative to control example 1, read-out: Relative eNOS genetic expression amount, n3.
The mark [7] stands for this setting: 30 μM final concentration, replicate n4, eNOS/GAPDH, relative to control example 1, read-out: Relative eNOS genetic expression amount, n4.
Setting [8] is: 30 μM final concentration, replicate n5, eNOS/GAPDH, relative to control example 1, read-out: Relative eNOS genetic expression amount, n5.

As for `CC(C)n1c(/C=C/C(O)CC(O)CC(=O)O)c(-c2ccc(F)cc2)c2ccccc21` (stereo not drawn) [Fluvastatin, reference compound], the “Relative eNOS genetic expression amount (in words)” value in experiment [1] (1 μM (control example 2), compared with control example 1) is “significantly higher than that in control example 1”. In experiment [1] (1 μM final concentration (positive control)), the “Relative eNOS genetic expression amount, Significant difference” value was “** (Level of significance across both sides: 1%)”. Moreover, the fold induction at 1 µM in experiment [1] (1 μM final concentration (positive control), average of n1-n5, control example 1 (none added) = 1.00, read-out: Relative eNOS genetic expression amount, Average value of n1-n5) turned out to be 2.62; in experiment [1] (1 μM final concentration (positive control), replicate n1, eNOS/GAPDH, relative to control example 1, read-out: Relative eNOS genetic expression amount, n1), 2.45; in experiment [1] (1 μM final concentration (positive control), replicate n2, eNOS/GAPDH, relative to control example 1, read-out: Relative eNOS genetic expression amount, n2), 2.57; in experiment [1] (1 μM final concentration (positive control), replicate n3, eNOS/GAPDH, relative to control example 1, read-out: Relative eNOS genetic expression amount, n3), 2.57; in experiment [1] (1 μM final concentration (positive control), replicate n4, eNOS/GAPDH, relative to control example 1, read-out: Relative eNOS genetic expression amount, n4), 2.89; in experiment [1] (1 μM final concentration (positive control), replicate n5, eNOS/GAPDH, relative to control example 1, read-out: Relative eNOS genetic expression amount, n5), 2.61. Also, in experiment [2], the “known action for promoting the production of endothelial nitric oxide synthase” value is given as “known to have an action for promoting the production of endothelial nitric oxide synthase”.

Take `CCCCCCCCCCCCCC(=O)O` [Example 1, Tetradecanoic acid]: the “Relative eNOS genetic expression amount, Significant difference” value in experiment [1] (30 μM final concentration) was “** (Level of significance across both sides: 1%)”. Besides, the “action for promoting production of endothelial nitric oxide synthase (conclusion in words)” value (“action for promoting production” below) in experiment [1] is reported as “have an action for promoting production of endothelial nitric oxide synthase”. Besides, the fold induction at 30 µM amounted to 1.26 in experiment [1] (setting [3]); 1.27 in experiment [1] (setting [4]); 1.26 in experiment [1] (setting [5]); 1.31 in experiment [1] (setting [6]); 1.12 in experiment [1] (setting [7]); 1.33 in experiment [1] (setting [8]).

For `CCCCCCCCCCCCCCC(=O)O` [Example 2, Pentadecanoic acid], in experiment [1] (30 μM final concentration), the “Relative eNOS genetic expression amount, Significant difference” value is reported as “** (Level of significance across both sides: 1%)”. In experiment [1], the “action for promoting production” value is given as “have an action for promoting production of endothelial nitric oxide synthase”. The fold induction at 30 µM in experiment [1] (setting [3]) came to 1.26; in experiment [1] (setting [4]), 1.15; in experiment [1] (setting [5]) it was 1.28; in experiment [1] (setting [6]) it was 1.2; in experiment [1] (setting [7]), 1.36; in experiment [1] (setting [8]), 1.3.

Consider `CCCCCCCCCCCCC(=O)O` [Example 3, Tridecanoic acid], for which, in experiment [1] (30 μM final concentration), the “Relative eNOS genetic expression amount, Significant difference” value was “** (Level of significance across both sides: 1%)”. Moreover, the “action for promoting production” value in experiment [1] is recorded as “have an action for promoting production of endothelial nitric oxide synthase”. Also, the fold induction at 30 µM was 1.25 in experiment [1] (setting [3]); 1.15 in experiment [1] (setting [4]); 1.33 in experiment [1] (setting [5]); 1.26 in experiment [1] (setting [6]); 1.28 in experiment [1] (setting [7]); 1.24 in experiment [1] (setting [8]).
